Data on eleven compounds can be found in patent publication US10065934B2, “Substituted urea derivatives and pharmaceutical uses thereof” (SUNSHINE LAKE PHARMA CO., LTD., priority 2014, dated 2018).

Molecules are shown by their SMILES. pIC50: −log10 of the molar value. Read-outs that look alike come from different tables or passages of the source.

Data set [1] in a line: Evaluation of pharmacokinetic activity in male SD rats (iv and oral). The data set is classed as in vivo. The settings on record: rat, plasma; for Cmax: read-out: Cmax. As for the experimental part:
1. Preparation of the Test Compound Solutions
The test compound solutions were prepared using appropriate amounts of 5% DMSO, 5% KolliphorHS15 and 90% Saline to dissolve each compound completely.
140-190 g male SD rats were randomly divided into two groups. One group was administered through intravenous drug delivery with the dosage of 1.0 or 2.0 mg/kg, and the other group was administered by oral with the dosage of 5.0 mg/kg. For intravenous administration, caudal vein blood samples at the time points of 0.0833, 0.25, 0.5, 1.0, 2.0, 4.0, 6.0, 8.0 and 24 h were collected after drug administration (the time point of drug administration was set as 0 h); and for oral administration, caudal vein blood samples at the time points of 0.25, 0.5, 1.0, 2.0, 4.0, 6.0, 8.0 and 24 h were collected after drug administration (the time point of drug administration was set as 0 h). Appropriate range of standard curve was established according to the sample concentration, and the test compound concentrations in plasma sample were measured by LC-MS/MS analysis. Pharmacokinetic parameters were calculated by non-compartmental method using WinNonLin 6.3 software based on drug concentration-time curves.

The test system of data set [2] is MV-4-11 cell. Put plainly: In vitro cytology inhibitory activity (MV-4-11 cell proliferation, cell viability luminescence). It counts as cell-based. As to conditions: Homo sapiens, MV4-11; MV-4-11 cells, 72 h incubation. Here is the method: Cell assay condition was shown below:
a. A complete medium was prepared and mixed well. b. Cell was recovered, and cell lines of between about two generations in good condition of growth were selected. c. The cell culture flasks were removed from the incubator, and the labeled cell name on the bottles, culture medium type and cell algebra were checked. d. The cell suspension was pipette into a centrifuge tube, and centrifuged at 800-1000 rpm for 3-5 minutes. e. Cell supernatant of the centrifuge tube was aspirated. f. Appropriate volume of culture medium was added into the centrifuge tube, and the cells were resuspended by gentle pipetting uniform. g. Vi-Cell XR cytometer was used for count. h. The cell suspension was adjusted to the appropriate concentration. i. The cell suspension was added to the bottom wall of the white 96-well plate, 100 microliters/well. Cells name, kind of board density and date were detailed labeled, and the culture plate was placed in CO2 incubator overnight.
2. Preparation and Addition of the Test Compounds
i) Preparation of test compound plates by diluting to 10 concentrations with DMSO: first, the test compound stock solution was prepared by dissolving a weighed compound in DMSO to a concentration of 10 mM, and then diluted to the concentration of 4 mM, which was then diluted to the concentration of 0.4 mM used as the highest concentration for testing with DMSO. The highest concentration was sequentially followed by 3-fold dilution for a total of 10 concentrations. Staurosporine was the positive control drug. ii) Addition of test compounds: a. 0.5 μL of test compound prepared above in compound plate was added into the cell culture plate that had been incubated overnight. Then the culture plate was incubated in an incubator at 37° C. for 72 hours.
3. Detection and Analysis
a. 72 hours after the compound treatment, cells was observed under an inverted microscope morphology, and cell growth state in DMSO control well was normal, there was no contamination. b. The cell culture plate was placed in equilibrium at room temperature for 30 minutes. c. The cell viability detection reagent at 100 μL/well was placed into culture plate. d. The mixture in culture plate was mixed two minutes in the vibration plate machine to induce cell lysis. e. 96-well plate was placed for 10 minutes at room temperature, making it stable luminescent signal. f. White base film was pasted on the bottom of the culture plate, and the plate was tested by using Flexstation3 (related to: light, integration time 500 ms). g. Experimental results were recorded and analyzed.

With `CC(C)(C)c1cc(NC(=O)Nc2ccc(C#Cc3cnc4c(OCCN5CCOCC5)ccnn34)cc2)no1` [Example 9, 1-(5-(tert-Butyl)isoxazol-3-yl)-3-(4-((8-(2-morpholinoethoxy)imidazo[1,2-b]pyridazin-3-yl)ethynyl)phenyl)urea], in data set [1] (iv, 1 mg/kg), the AUC(0-inf) was determined as 1390 ng·h/mL, the exposure AUC(0-t) is 1330 ng·h/mL, the Tmax was found to be 0.083 h and the half-life was 1.7 h. Besides, the Cmax in data set [1] (iv, 1 mg/kg) turned out to be 793 ng/mL. The Vd in data set [1] (iv, 1 mg/kg, read-out: Vss) turned out to be 1.62 L/kg. Further, the bioavailability in data set [1] (po 5 mg/kg vs iv 1 or 2 mg/kg) turned out to be 116%. Further, in data set [1] (po, 5 mg/kg), the area under the curve AUC(0-inf) was 8030 ng·h/mL, the AUC(0-t) was found to be 8010 ng·h/mL, the time to peak (Tmax) was 2.67 h and the half-life was 2.85 h. For the same compound, the peak concentration (Cmax) in data set [1] (po, 5 mg/kg) amounted to 1090 ng/mL.
In the case of `CC(C)(C)c1cc(NC(=O)Nc2ccc(C#Cc3ccc(OCCCN4CCOCC4)nc3)cc2)no1` [Example 17, 1-(5-(tert-Butyl)isoxazol-3-yl)-3-(4-((6-(3-morpholinopropoxy)pyridin-3-yl)ethynyl)phenyl) urea], the pIC50 in data set [2] was 7.93.
In turn, `CC(C)(CO)c1cc(NC(=O)Nc2ccc(C#Cc3ccc(OCCCN4CCOCC4)cc3)cc2)no1` [Example 84, 1-(5-(1-Hydroxy-2-methylpropan-2-yl)isoxazol-3-yl)-3-(4-((4-(3-morpholinopropoxy)phenyl)ethynyl)phenyl)urea] showed a negative-log IC50 (pIC50) in data set [2] of 8.68.
In data set [2], `CC(C)(C)c1cc(NC(=O)Nc2ccc(C#Cc3ccc(OCCCN4CCOCC4)cc3)cc2F)no1` [Example 81, 1-(5-(tert-Butyl)isoxazol-3-yl)-3-(2-fluoro-4-((4-(3-morpholinopropoxy)phenyl)ethynyl)phenyl)urea] had a negative logarithm of the IC50 (pIC50) of 8.33.
Still for that read-out and setting: then `CC(C)(C)c1cc(NC(=O)Nc2ccc(C#Cc3ccc(OCCC[N+]4([O-])CCOCC4)cc3F)cc2)no1` [Example 83, 4-(3-(4-((4-(3-(5-(tert-Butyl)isoxazol-3-yl)ureido)phenyl)ethynyl)-3-fluorophenoxy)propyl) morpholine 4-oxide], with 8.64.
Take `CC(C)(C)c1cc(NC(=O)Nc2ccc(C#Cc3ccc(OCCCN4CCC5(COC5)C4)cc3)cc2)no1` [Example 19, 1-(4-((4-(3-(2-Oxa-6-azaspiro[3.4]octan-6-yl)propoxy)phenyl)ethynyl)phenyl)-3-(5-(tert-butyl)isoxazol-3-yl)urea]: the negative logarithm of the IC50 (pIC50) in data set [2] is 7.86.
`CC(C)(C)c1cc(NC(=O)Nc2ccc(C#Cc3ccc(OCCCN4CCOCC4)cc3)cc2)no1` [Example 21, 1-(5-(tert-Butyl)isoxazol-3-yl)-3-(4-((4-(3-morpholinopropoxy)phenyl)ethynyl)phenyl)urea] gave a negative logarithm of the IC50 (pIC50) in data set [2] of 8.55.
In the case of `CC(C)(C)c1cc(NC(=O)Nc2ccc(C#Cc3ccc(OCCCN4CCOCC4)c(O)c3)cc2)no1` [Example 86, 1-(5-(tert-Butyl)isoxazol-3-yl)-3-(4-((3-hydroxy-4-(3-morpholinopropoxy)phenyl)ethynyl)phenyl)urea], the negative-log IC50 (pIC50) in data set [2] is 9.05.
The same measure, in the same setting: then `CC(C)(C)c1cc(NC(=O)Nc2ccc(C#Cc3ccc(OCCC[N+]4([O-])CCOCC4)cc3)cc2)no1` [Example 82, 4-(3-(4-((4-(3-(5-(tert-Butyl)isoxazol-3-yl)ureido)phenyl)ethynyl)phenoxy)propyl)morpholine 4-oxide], with 8.52; and `CC(C)(C)c1cc(NC(=O)Nc2ccc(C#Cc3cnc4ccc(OCCCN5CCOCC5)nn34)cc2)no1` [Example 7, 1-(5-(tert-Butyl)isoxazol-3-yl)-3-(4-((6-(3-morpholinopropoxy)imidazo[1,2-b]pyridazin-3-yl)ethynyl)phenyl)urea], with 8.49; and `CC(C)(C)c1cc(NC(=O)Nc2ccc(C#Cc3ccc(OCCCN4CCOCC4)cc3)cc2O)no1` [Example 87, 1-(5-(tert-butyl)isoxazol-3-yl)-3-(2-hydroxy-4-((4-(3-morpholinopropoxy)phenyl)ethynyl)phenyl)urea], with 7.59.

A word on the AUC(0-inf): it is total exposure, with the tail of the curve extrapolated. Low readings indicate less exposure, high ones more exposure. Broadly, the AUC(0-t) is exposure summed from dosing to a finite time, without extrapolation to infinity. Low readings indicate low exposure, high ones high exposure. What is called Tmax is the time at which the peak concentration occurs. As usually defined, the half-life is the time in which the quantity being followed falls by half. In general, Cmax refers to the highest concentration seen after dosing. For orientation: pIC50 means the negative decadic logarithm of the IC50, by convention in mol/L. Low readings indicate a high IC50, high ones a low IC50.
